The values that follow come from ChEMBL document CHEMBL5584230, “Exploring fluorine-substituted piperidines as potential therapeutics for diabetes mellitus and Alzheimer's diseases” (Eur J Med Chem, 2024).

Data set [1] deals with Rattus norvegicus. Kind of data set: Anti-diabetic activity in STZ-induced diabetic Sprague-Dawley rat model assessed as reduction in blood glucose level at 9 mg/kg, ip measured at day 28 (reference value: 501.71 +/- 3.91 mg/dl). In kind it is functional. To be noted: time 28 day.
For data set [2], the system named is Rattus norvegicus. Description: Anti-diabetic activity in STZ-induced diabetic Sprague-Dawley rat model assessed as reduction in blood glucose level at 9 mg/kg, ip measured at day 14 (reference value: 489.44 +/- 4.18 mg/dl). It is filed as functional. To be noted: time 14 day.
Data set [3] relates to Rattus norvegicus. Description: Anti-diabetic activity in STZ-induced diabetic Sprague-Dawley rat model assessed as reduction in blood glucose level at 9 mg/kg, ip measured at day 21 (reference value: 503.09 +/- 4.15 mg/dl). To be noted: time 21 day. In kind it is functional.
Data set [4] is described as follows: Acute toxicity in BALB/c mouse upto 100 mg/kg, ip administered for 72 hrs and measured after 14 days. In kind it is organism-based. To be noted: in vivo, 408 h, time 17 day.
Data set [5] deals with T1, Acetylcholinesterase (Homo sapiens, UniProt P22303). Description: Inhibition of AChE (unknown origin).
The subject of data set [6] is Rattus norvegicus. Kind of data set: Anti-diabetic activity in STZ-induced diabetic Sprague-Dawley rat model assessed as increase in body weight at 9 mg/kg, ip measured at day 1. To be noted: time 1.0 day. It is filed as functional, organism-based.
Data set [7] concerns Rattus norvegicus. Description: Anti-diabetic activity in STZ-induced diabetic Sprague-Dawley rat model assessed as increase in body weight at 9 mg/kg, ip measured at day 14. In kind it is functional, organism-based. To be noted: time 14.0 day.
Data set [8] relates to Rattus norvegicus. Description: Anti-diabetic activity in STZ-induced diabetic Sprague-Dawley rat model assessed as reduction in cholesterol level in plasma at 9 mg/kg, ip (reference value: 218 +/- 4.41 mg/dl). It is filed as functional.
Data set [9] is described as follows: Antioxidant activity assessed as DPPH radical scavenging activity incubated for 30 mins. In kind it is functional.
In data set [10] the test system is Rattus norvegicus. Description: Anti-diabetic activity in STZ-induced diabetic Sprague-Dawley rat model assessed as reduction in LDL level in plasma at 9 mg/kg, ip (reference value: 138.19 +/- 3.67 mg/dl). It is filed as functional.
Data set [11] is described as follows: Antioxidant activity assessed as ABTS radical scavenging activity. In kind it is functional.
Data set [12] deals with Rattus norvegicus. Description: Anti-diabetic activity in STZ-induced diabetic Sprague-Dawley rat model assessed as reduction in TG level in plasma at 9 mg/kg, ip (reference value: 226.19 +/- 3.97 mg/dl). In kind it is functional.
Another data set addresses Cholinesterase (Homo sapiens, UniProt P06276). Description: Inhibition of BchE (unknown origin).
In data set [13] the test system is Rattus norvegicus. Description: Anti-diabetic activity in STZ-induced diabetic Sprague-Dawley rat model assessed as increase in body weight at 9 mg/kg, ip measured at day 28. In kind it is functional, organism-based. Conditions: time 28.0 day.
Data set [14] has as its system Rattus norvegicus. Description: Anti-diabetic activity in STZ-induced diabetic Sprague-Dawley rat model assessed as reduction in blood glucose level at 9 mg/kg, ip measured at day 7 (reference value: 490.69 +/- 3.98 mg/dl). It is filed as functional. Conditions: time 7 day.
Data set [15] relates to Rattus norvegicus. Description: Anti-diabetic activity in STZ-induced diabetic Sprague-Dawley rat model assessed as reduction in HDL level in plasma at 9 mg/kg, ip (reference value: 21.09 +/- 1.71 mg/dl). It is filed as functional.
A short description of data set [16]: Inhibition of alpha-glucosidase (unknown origin). Set-up: species or system Homo sapiens.
The subject of data set [17] is Rattus norvegicus. Description: Anti-diabetic activity in STZ-induced diabetic Sprague-Dawley rat model assessed as change in blood glucose level at 9 mg/kg, ip measured for 28 days. It is filed as functional, organism-based. Conditions: time 28.0 day.
The subject of data set [18] is Rattus norvegicus. Description: Anti-diabetic activity in STZ-induced diabetic Sprague-Dawley rat model assessed as reduction in blood glucose level at 9 mg/kg, ip measured at day 1 (reference value: 494.14 +/- 4.15 mg/dl). It is filed as functional. Conditions: time 1 day.
The species named for a further data set is Homo sapiens. Kind of data set: Competitive inhibition of alpha-glucosidase (unknown origin) […] using p-nitrophenyl glucopyranoside as substrate assessed as increase in Km with constant Vmax upto 180 uM using varying concentrations of substrate measured for 20 mins by Lineweaver-Burk plot analysis.
A short description of data set [19]: Inhibition of alpha-glucosidase (unknown origin) using p-nitrophenyl glucopyranoside as substrate assessed as inhibition constant by Lineweaver-Burk plot analysis. Set-up: species or system Homo sapiens.
The target of data set [20] is T1, Acetylcholinesterase. Kind of data set: Inhibition of AChE (unknown origin) using […] assessed as inhibition constant by Lineweaver-Burk plot analysis.
Data set [21] concerns the target T1, Acetylcholinesterase. Kind of data set: Mixed type inhibition of AChE (unknown origin) using […] assessed as effect on Vmax and Km at 1.95 to 7.8 uM by Lineweaver-Burk plot analysis. To be noted: dose 1.95-7.8 µM.

Where “and” joins values, the source holds several entries; their conditions need not be identical. Equal entries are not always repeated. Calls of active or inactive are those of the source. No cut-off for these calls is given here.

Chain of Cholinesterase (P06276 whole entry): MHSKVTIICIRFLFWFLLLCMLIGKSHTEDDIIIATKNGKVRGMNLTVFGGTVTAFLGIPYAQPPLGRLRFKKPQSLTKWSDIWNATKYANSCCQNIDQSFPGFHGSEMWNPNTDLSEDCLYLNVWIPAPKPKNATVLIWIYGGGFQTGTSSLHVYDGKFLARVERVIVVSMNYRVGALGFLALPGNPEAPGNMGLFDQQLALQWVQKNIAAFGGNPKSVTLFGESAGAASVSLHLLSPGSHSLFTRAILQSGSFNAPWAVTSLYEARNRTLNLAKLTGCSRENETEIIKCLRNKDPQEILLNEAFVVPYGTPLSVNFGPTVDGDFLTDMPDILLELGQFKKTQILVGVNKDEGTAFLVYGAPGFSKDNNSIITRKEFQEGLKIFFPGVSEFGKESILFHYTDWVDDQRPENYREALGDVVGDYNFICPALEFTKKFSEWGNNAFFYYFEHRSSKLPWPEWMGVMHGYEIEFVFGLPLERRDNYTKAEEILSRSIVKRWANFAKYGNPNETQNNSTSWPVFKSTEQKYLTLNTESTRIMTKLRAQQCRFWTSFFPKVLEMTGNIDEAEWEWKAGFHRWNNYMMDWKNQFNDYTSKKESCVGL
T1 sequence (P22303 whole entry): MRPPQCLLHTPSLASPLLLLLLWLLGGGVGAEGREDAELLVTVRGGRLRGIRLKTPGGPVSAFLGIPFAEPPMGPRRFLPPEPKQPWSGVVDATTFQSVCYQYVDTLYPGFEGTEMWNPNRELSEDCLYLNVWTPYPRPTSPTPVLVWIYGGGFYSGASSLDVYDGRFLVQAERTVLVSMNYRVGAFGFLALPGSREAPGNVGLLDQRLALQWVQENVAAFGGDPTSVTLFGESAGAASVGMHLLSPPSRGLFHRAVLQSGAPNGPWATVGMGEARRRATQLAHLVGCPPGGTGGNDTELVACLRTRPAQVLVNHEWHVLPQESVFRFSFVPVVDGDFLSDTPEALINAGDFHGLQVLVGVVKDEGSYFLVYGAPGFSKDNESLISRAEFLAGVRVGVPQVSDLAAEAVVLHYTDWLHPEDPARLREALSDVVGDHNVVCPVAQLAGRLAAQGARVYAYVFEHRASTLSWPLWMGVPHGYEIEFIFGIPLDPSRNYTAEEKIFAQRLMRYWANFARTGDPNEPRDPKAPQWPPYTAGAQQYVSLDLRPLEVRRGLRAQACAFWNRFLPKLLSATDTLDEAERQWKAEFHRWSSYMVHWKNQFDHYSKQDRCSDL

The term IC50 denotes the midpoint of a concentration-inhibition curve. As for `CCOC(=O)C1=C(Nc2ccc(F)cc2)CC(c2ccc(Cl)cc2)N(c2ccc(F)cc2)C1c1ccc(Cl)cc1` (stereo not drawn), the Activity with Rattus norvegicus [1] is 167.81 mg/dL; in the data set on Rattus norvegicus [2] it was 349.78 mg/dL; in the data set with Rattus norvegicus [3] it was 244.27 mg/dL; in data set [4], “Non-Toxic”; with Rattus norvegicus [8], 87.96 mg/dL; in the data set with Rattus norvegicus [10], 61.39 mg/dL. Besides, the Activity in the data set with Rattus norvegicus [12] was 104.2 mg/dL; with Rattus norvegicus [14], 427.82 mg/dL; in the data set with Rattus norvegicus [15], 28.09 mg/dL; in the data set on Rattus norvegicus [18], 498.7 mg/dL. The concentration for half-maximal inhibition (IC50) against Acetylcholinesterase [5] came out at 0.916 µM; in data set [9], 1.32 µM; in [11], 0.461 µM; on Cholinesterase, 1.02 µM; in data set [16] it was 0.291 µM. The outcome with Rattus norvegicus [6], with Rattus norvegicus [7], in the data set with Rattus norvegicus [13] and with Rattus norvegicus [17] was Active.
Take `CCOC(=O)C1=C(Nc2ccccc2)CC(c2ccc(F)cc2)N(c2ccccc2)C1c1ccc(F)cc1` (stereo not drawn): the IC50 at Acetylcholinesterase [5] was found to be 1.36 µM; in data set [9], 1.05 µM; in data set [11], 0.216 µM; against Cholinesterase, 1.28 µM; in [16], 0.473 µM.
As to `CCOC(=O)C1=C(Nc2cccc(F)c2)CC(c2ccc(C(F)(F)F)cc2)N(c2cccc(F)c2)C1c1ccc(C(F)(F)F)cc1` (stereo not drawn), the Activity was 152.61 mg/dL in the data set on Rattus norvegicus [1]; 334.29 mg/dL in the data set on Rattus norvegicus [2]; 240.19 mg/dL in the data set on Rattus norvegicus [3]; “Non-Toxic” in [4]; 78.67 mg/dL in the data set with Rattus norvegicus [8]; 51.22 mg/dL with Rattus norvegicus [10]. In addition, the Activity in the data set on Rattus norvegicus [12] was 93.71 mg/dL; in the data set on Rattus norvegicus [14] it was 422.69 mg/dL; in the data set with Rattus norvegicus [15] it was 31.06 mg/dL; with Rattus norvegicus [18], 495.39 mg/dL. Besides, the half-inhibitory concentration (IC50) on Acetylcholinesterase [5] is 1.19 µM; in data set [9], 0.814 µM; in [11], 0.629 µM; at Cholinesterase, 1.27 µM; in data set [16], 0.22 µM. In addition, the result in the data set on Rattus norvegicus [6], with Rattus norvegicus [7], with Rattus norvegicus [13] and with Rattus norvegicus [17] was Active.
Broadly, the Ki is the dissociation constant of the complex between target and ligand, obtained from inhibition or displacement. On to `CCOC(=O)C1=C(Nc2ccc(F)cc2)CC(c2ccc(C(F)(F)F)cc2)N(c2ccc(F)cc2)C1c1ccc(C(F)(F)F)cc1` (stereo not drawn), for which the Activity with Rattus norvegicus [1] was 138.56 mg/dL; in the data set on Rattus norvegicus [2], 320.81 mg/dL; in the data set on Rattus norvegicus [3] it was 231.77 mg/dL; in [4] it was “Non-Toxic”; in the data set with Rattus norvegicus [8], 75.05 mg/dL; with Rattus norvegicus [10], 47.51 mg/dL. Further, the Activity in the data set on Rattus norvegicus [12] was found to be 91.96 mg/dL; in the data set on Rattus norvegicus [14], 417.55 mg/dL; in the data set on Rattus norvegicus [15], 33.51 mg/dL; in the data set on Rattus norvegicus [18] it was 497.98 mg/dL. Also, the inhibition result in the data set filed under Homo sapiens was “Active”. Further, the inhibition constant (Ki) in data set [19] was found to be 117 µM. Besides, the IC50 on Acetylcholinesterase [5] was found to be 0.932 µM; in data set [9], 0.633 µM; in [11], 0.167 µM; on Cholinesterase, 1.02 µM; in data set [16], 0.176 µM. Moreover, the result with Rattus norvegicus [6], in the data set on Rattus norvegicus [7], with Rattus norvegicus [13] and in the data set on Rattus norvegicus [17] was Active.
As for `CCOC(=O)C1=C(Nc2ccc(F)cc2)CC(c2cccc(F)c2)N(c2ccc(F)cc2)C1c1cccc(F)c1` (stereo not drawn), the 50% inhibitory concentration (IC50) on Acetylcholinesterase [5] was 1.12 µM; in data set [9] it was 0.95 µM; in data set [11], 0.562 µM; at Cholinesterase, 1.33 µM; in [16], 0.457 µM.
The corresponding values for `CCOC(=O)C1=C(Nc2cccc(F)c2)CC(c2ccc(F)cc2)N(c2cccc(F)c2)C1c1ccc(F)cc1` (stereo not drawn) are 1.42 µM, 1.1 µM, 0.519 µM, 1.99 µM and 0.367 µM.
Consider `C[C@H]1O[C@H](O[C@H]2[C@H](O)[C@@H](O)[C@@H](O[C@H]3[C@H](O)[C@@H](O)C(O)O[C@@H]3CO)O[C@@H]2CO)[C@H](O)[C@@H](O)[C@@H]1N[C@H]1C=C(CO)[C@@H](O)[C@H](O)[C@H]1O` (stereo partly drawn) [ACARBOSE], for which inhibition in data set [16] was half-maximal at 28.7 µM (IC50).
With `CCOC(=O)C1=C(Nc2ccc(F)cc2)CC(c2ccc(F)cc2)N(c2ccc(F)cc2)C1c1ccc(F)cc1` (stereo not drawn), the Activity was 159.45 mg/dL in the data set with Rattus norvegicus [1]; 341.51 mg/dL in the data set on Rattus norvegicus [2]; 256.71 mg/dL in the data set with Rattus norvegicus [3]; “Non-Toxic” in [4]; 91.16 mg/dL with Rattus norvegicus [8]; 59.16 mg/dL in the data set on Rattus norvegicus [10]. Moreover, the Activity was 97.65 mg/dL in the data set on Rattus norvegicus [12], 419.93 mg/dL with Rattus norvegicus [14], 27.73 mg/dL in the data set on Rattus norvegicus [15] and 501.12 mg/dL in the data set with Rattus norvegicus [18]. Further, the concentration for half-maximal inhibition (IC50) at Acetylcholinesterase [5] is 0.774 µM; in [9] it was 0.691 µM and 0.69 µM; in [11], 0.022 µM and 0.02 µM; against Cholinesterase, 0.739 µM; in data set [16], 0.251 µM. Further, at Acetylcholinesterase [20], the inhibition constant Ki worked out at 2.05 µM. The result in the data set with Rattus norvegicus [6], in the data set with Rattus norvegicus [7], in the data set on Rattus norvegicus [13] and in the data set with Rattus norvegicus [17] was Active. On Acetylcholinesterase [21], the inhibition result was “Active”.
Regarding `CCOC(=O)C1=C(Nc2cccc(F)c2)CC(c2ccc(Cl)cc2)N(c2cccc(F)c2)C1c1ccc(Cl)cc1` (stereo not drawn), the IC50 was determined as 1.27 µM against Acetylcholinesterase [5]; 0.983 µM in data set [9]; 0.712 µM in [11]; 1.7 µM on Cholinesterase; 0.384 µM in data set [16].
Regarding `Cc1c(C)c2c(c(C)c1O)CCC(C)(C(=O)O)O2` (stereo not drawn) [TROLOX], the IC50 in [11] stood at 0.028 µM.
On to `O=C1O[C@H]([C@@H](O)CO)C(O)=C1O` [ASCORBIC ACID], for which the half-inhibitory concentration (IC50) in [9] is 0.64 µM.
